The target in one data set is T1, human TLR7 (Homo sapiens, UniProt Q9NYK1).
T1 construct: expressed in transfected cells; host or cells: HEK293 (HEK-Blue-7)
T1 sequence (Q9NYK1 27-1049): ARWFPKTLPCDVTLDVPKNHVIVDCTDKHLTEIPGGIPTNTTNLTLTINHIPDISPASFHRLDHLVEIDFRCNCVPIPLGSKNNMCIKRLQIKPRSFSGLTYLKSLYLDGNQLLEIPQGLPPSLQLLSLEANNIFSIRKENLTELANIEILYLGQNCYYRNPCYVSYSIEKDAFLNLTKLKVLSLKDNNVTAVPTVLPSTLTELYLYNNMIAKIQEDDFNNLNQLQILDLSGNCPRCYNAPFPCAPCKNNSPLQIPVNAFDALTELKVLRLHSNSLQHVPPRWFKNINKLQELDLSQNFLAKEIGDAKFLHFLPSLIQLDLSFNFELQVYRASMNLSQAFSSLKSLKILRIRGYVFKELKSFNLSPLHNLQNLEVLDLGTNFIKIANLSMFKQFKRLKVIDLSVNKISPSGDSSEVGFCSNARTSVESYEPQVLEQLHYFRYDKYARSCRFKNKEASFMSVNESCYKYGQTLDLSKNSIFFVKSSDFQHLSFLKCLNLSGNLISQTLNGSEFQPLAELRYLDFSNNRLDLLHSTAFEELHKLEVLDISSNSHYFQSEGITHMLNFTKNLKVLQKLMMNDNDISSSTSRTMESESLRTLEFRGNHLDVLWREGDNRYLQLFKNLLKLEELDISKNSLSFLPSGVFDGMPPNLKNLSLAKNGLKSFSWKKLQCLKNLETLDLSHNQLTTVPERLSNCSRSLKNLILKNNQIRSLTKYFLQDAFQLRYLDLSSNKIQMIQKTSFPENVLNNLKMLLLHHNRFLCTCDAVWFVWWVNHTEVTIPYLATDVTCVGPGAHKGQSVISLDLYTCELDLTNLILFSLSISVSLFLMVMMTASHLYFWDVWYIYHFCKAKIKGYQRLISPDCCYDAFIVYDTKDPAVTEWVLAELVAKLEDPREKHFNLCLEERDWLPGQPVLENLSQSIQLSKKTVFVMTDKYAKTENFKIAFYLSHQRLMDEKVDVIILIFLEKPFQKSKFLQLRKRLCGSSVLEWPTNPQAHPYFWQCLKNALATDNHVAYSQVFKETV
The experiment in a line: Human TLR7 reporter gene assay (NF-κB induction), HEK-Blue-7 cells. The format is cell-based. Background: In a reporter assay the amount or activity of a reporter protein is the signal.

The next data set addresses T2, human TLR8 (Homo sapiens, UniProt Q9NR97).
T2 construct: expressed in transfected cells; host or cells: HEK293 (HEK-Blue-8)
T2 sequence (Q9NR97 27-1041): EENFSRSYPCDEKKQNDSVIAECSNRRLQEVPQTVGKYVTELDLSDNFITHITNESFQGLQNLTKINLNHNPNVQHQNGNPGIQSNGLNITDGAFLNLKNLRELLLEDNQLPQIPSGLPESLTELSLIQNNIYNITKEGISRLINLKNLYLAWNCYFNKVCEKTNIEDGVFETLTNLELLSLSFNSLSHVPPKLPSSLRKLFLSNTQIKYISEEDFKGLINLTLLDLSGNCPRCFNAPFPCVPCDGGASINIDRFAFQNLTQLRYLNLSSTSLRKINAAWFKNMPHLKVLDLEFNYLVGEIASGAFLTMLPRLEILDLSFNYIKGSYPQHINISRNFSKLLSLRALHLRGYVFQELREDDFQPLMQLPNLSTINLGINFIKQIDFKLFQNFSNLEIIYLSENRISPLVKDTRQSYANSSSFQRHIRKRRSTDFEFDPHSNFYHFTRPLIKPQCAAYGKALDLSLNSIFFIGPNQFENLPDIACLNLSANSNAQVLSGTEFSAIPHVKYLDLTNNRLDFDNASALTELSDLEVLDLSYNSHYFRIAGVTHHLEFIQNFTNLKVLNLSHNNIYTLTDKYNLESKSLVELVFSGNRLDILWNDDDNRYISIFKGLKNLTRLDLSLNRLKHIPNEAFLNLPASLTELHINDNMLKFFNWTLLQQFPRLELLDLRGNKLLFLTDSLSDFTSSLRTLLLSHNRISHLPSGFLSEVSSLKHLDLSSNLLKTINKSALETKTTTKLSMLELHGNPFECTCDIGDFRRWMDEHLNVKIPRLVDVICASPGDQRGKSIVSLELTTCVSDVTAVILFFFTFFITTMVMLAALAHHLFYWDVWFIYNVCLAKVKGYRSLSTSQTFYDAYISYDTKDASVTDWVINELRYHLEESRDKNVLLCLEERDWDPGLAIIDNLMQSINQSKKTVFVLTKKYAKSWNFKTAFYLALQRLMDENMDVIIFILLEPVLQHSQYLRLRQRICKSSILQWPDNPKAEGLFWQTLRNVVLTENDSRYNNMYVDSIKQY
Briefly: Human TLR8 reporter gene assay (NF-κB induction), HEK-Blue-8 cells. The format is cell-based.

Data set [1] concerns human PBMCs. Briefly: IFN-α induction in human PBMCs (ELISA). The format is cell-based. The settings on record: PBMC. On the technique in general: In an ELISA, binding on a coated surface is turned into a signal by an enzyme label.
Description: (§1) Fresh human peripheral blood mononuclear cells (hPBMC) were isolated from human blood obtained by venipuncture with informed consent and as per institutional guidelines on Ficoll-Hypaque gradients as described elsewhere. Aliquots of PBMCs (10^5 cells in 100 μL/well) were stimulated for 12 h with graded concentrations of test compounds. Supernatants were isolated by centrifugation, and were assayed in triplicates using either high-sensitivity multi-subtype IFN-α ELISA kits (PBL Interferon Source, Piscataway, N.J. and R&D Systems, Inc., Minneapolis, Minn.), or analyte-specific multiplexed cytokine/chemokine bead array assays as reported by us previously.
Data set [2] has as its system human natural killer (NK), cytokine-induced killer (CIK) and nominal B lymphocytes. Briefly: Flow-cytometric CD69 upregulation in lymphocytic subsets of whole human blood. The format is cell-based. Here is the method: Flow-Cytometric Immunostimulation Experiments.
CD69 upregulation was determined by flow cytometry and modified for rapid-throughput. Briefly, heparin-anticoagulated whole blood samples were obtained by venipuncture from healthy human volunteers with informed consent and as per guidelines approved by the University of Kansas Human Subjects Experimentation Committee. Serial dilutions of selected imidazopyridine compounds (and imiquimod, used as a reference compound) were performed using a Bio-Tek Precision 2000 XS liquid handler in sterile 96-well polypropylene plates, to which were added 100 μL aliquots of anticoagulated whole human blood. The plates were incubated at 37° C. for 16.5 h. Negative (endotoxin free water) controls were included in each experiment. Following incubation, fluorochrome-conjugated antibodies (CD3-PE, CD56-APC, CD69-PE-Cy7, 10 μL of each antibody, Becton-Dickinson Biosciences, San Jose, Calif.) were added to each well with a liquid handler, and incubated at 37° C. in the dark for 30 min. […] CD69 activation in the major lymphocytic populations, viz., natural killer lymphocytes (NK cells: CD3^−CD56^+), cytokine-induced killer phenotype (CIK cells: CD3^+CD56^+), nominal B lymphocytes (CD3^−CD56^−), and nominal T lymphocytes (CD3^+CD56^−) were quantified using FlowJo v 7.0 software (Treestar, Ashland, Oreg.). […]

Data set [3] can be described thus: Metabolic stability in human foreskin fibroblasts (microdialysis, LC-MS/MS). It counts as in vitro ADME. The settings on record: human, human foreskin fibroblasts (HFFs).
Data set [4] deals with human foreskin fibroblasts (HFFs). The description is as above. It counts as in vitro ADME.
Data set [5] is described as follows: Metabolic stability in peripheral blood mononuclear cells (microdialysis, LC-MS/MS). It counts as in vitro ADME, human. To be noted: human, peripheral blood mononuclear cells (PBMCs).
For data set [6], the system named is peripheral blood mononuclear cells (PBMCs). The data set is described as above. The format is in vitro ADME, human. To be noted: PBMCs.
Data set [7] can be described thus: Chemical stability of the free base (autoxidation). It counts as physicochemical. To be noted: rapid formation of 3-ol A5 by autoxidation. The text has this: A ring-contracted 2-amino-3-alkylindole analogue compound A4, accessed via sequential C-alkylation of commercially available 2-nitrophenylacetonitrile, reduction of the 2-nitro group, and Brønsted acid-promoted, microwave-assisted intramolecular cyclization (Scheme A1).

In data set [8] the test system is human PBMCs. Briefly: Proinflammatory cytokine induction in human PBMCs / human blood (bead array). It counts as cell-based. The settings on record: human PBMCs and whole human blood.
Description: Immunoassays for Interferon (IFN)-α, and Cytokines.
as §1
[9] abbreviates: human TLR7-specific reporter gene assay, Inactive = no activity up to 500 μg/mL, read-out: hTLR7-agonistic Activity (EC50).
Setting [10] is: human TLR7-specific reporter gene assay, Inactive = no activity up to 500 μg/mL.

From US10471139B2, “Toll-like receptor agonists” (The University of Kansas, priority 2013, dated 2019) come the findings set out here.

Read-outs that look alike come from different tables or passages of the source.

Excerpt for human TLR7: (§2) Human TLR-7/-8 Reporter Gene Assays (NF-κB Induction).
(§3) The induction of NF-κB was quantified using HEK-Blue-7 (hTLR7-specific) and HEK-Blue-8 (hTLR8-specific) cells. HEK293 cells stably co-transfected with human TLR7 or human TLR8, MD2, and secreted alkaline phosphatase (sAP), were maintained in HEK-Blue™ Selection medium containing zeocin and normocin. Stable expression of secreted alkaline phosphatase (sAP) under control of NF-κB/AP-1 promoters is inducible by appropriate TLR agonists, and extracellular sAP in the supernatant is proportional to NF-κB induction.
(§4) HEK293 cells stably co-transfected with the appropriate hTLR (or NOD) and secreted alkaline phosphatase (sAP) were maintained in HEK-Blue™ Selection medium. Stable expression of secreted alkaline phosphatase (sAP) under control of NF-κB/AP-1 promoters is inducible by appropriate TLR/NOD agonists, and extracellular sAP in the supernatant is proportional to NF-κB induction.
Excerpt for human TLR8: as §2, §3, §4

Consider `CCCCc1nc2c(N)nccc2n1Cc1ccccc1` [Compound 5, 1-Benzyl-2-butyl-1H-imidazo[4,5-c]pyridin-4-amine], for which, on human TLR7 (primary screen, read-out: TLR7-specific agonistic activity EC50), the EC50 is 1.57 µM. The TLR8 activity result on human TLR8 (TLR7 series) was “negligible”.
`CCCCc1nc2c(N)nc(NCc3ccco3)cc2n1Cc1ccccc1` [Compound 19k, 1-Benzyl-2-butyl-N^6-(furan-2-ylmethyl)-1H-imidazo[4,5-c]pyridine-4,6-diamine]: the “TLR7-agonistic potency relative to compound 5” value at human TLR7 (fold over compound 5) is recorded as “approximately twenty-fold”. The values for the concentration giving a half-maximal response (EC50) on human TLR7 (setting [9]) and in the data set on human PBMCs [1] were 0.075 µM and 0.7 µM, respectively.
Compound `CCCCc1nc2c(N)nc(NCc3ccc(CN)cc3)cc2n1Cc1ccccc1` [Compound 19p, N^6-(4-(aminomethyl)benzyl)-1-benzyl-2-butyl-1H-imidazo[4,5-c]pyridine-4,6-diamine] had an EC50 in the data set with human PBMCs [1] of 0.3 µM. Moreover, in data set [2], the “CD69 expression in natural killer, cytokine-induced killer and B lymphocytic subsets” value is reported as “as active as the reference TLR7 agonist IMDQ”. For the same compound, the half-life was less than 1 h in [3] and 3 h in data set [5]. Moreover, the “number of major metabolites identified by LC-MS/MS” value in data set [4] (FIG. 5B, Table A, cell type not stated) is recorded as 6. The “parent detected by LC-MS” value in [4] (HFFs, at 1 hour) is given as “nearly undetectable”. The “time by which parent was depleted” value in [6] is no more than 8 h.
In the case of `CCCCc1nc2c(N)nc(NCc3cccc(CNc4cc5c(nc(CCCC)n5Cc5ccccc5)c(N)n4)c3)cc2n1Cc1ccccc1` [Compound 19s, N^6,N^6′-(1,3-phenylenebis(methylene))bis(1-benzyl-2-butyl-1H-imidazo[4,5-c]pyridine-4,6-diamine)], the “hTLR7-agonistic Activity (EC50)” value on human TLR7 (setting [10]) is on record as “Inactive”.
Take `CCCCc1cc2c(nc(CCCC)n2Cc2ccccc2)c(N)n1` [Compound 23a, 1-Benzyl-2,6-dibutyl-1H-imidazo[4,5-c]pyridin-4-amine]: on human TLR7 (setting [9]), the EC50 came to 0.28 µM.
Consider `CCCCc1nc2c(N)nc(-c3ccccc3)cc2n1Cc1ccccc1` [Compound 23b, 1-Benzyl-2-butyl-6-phenyl-1H-imidazo[4,5-c]pyridin-4-amine], for which the “hTLR7-agonistic Activity (EC50)” value at human TLR7 (setting [10]) is given as “Inactive”.
Still for that read-out and setting: the result for `CCCCc1nc2c(N)nc(-c3ccc(C(N)=O)cc3)cc2n1Cc1ccccc1` [Compound 23c, 4-(4-Amino-1-benzyl-2-butyl-1H-imidazo[4,5-c]pyridin-6-yl)benzamide] reads “Inactive”.
Same read-out and setting: then `CCCCc1nc2c(N)nc(-c3cccnc3)cc2n1Cc1ccccc1` [Compound 23d, 1-Benzyl-2-butyl-6-(pyridin-3-yl)-1H-imidazo[4,5-c]pyridin-4-amine], with “Inactive”; and `CCCCc1nc2c(N)nc(-c3ccoc3)cc2n1Cc1ccccc1` [Compound 23e, 1-Benzyl-2-butyl-6-(furan-3-yl)-1H-imidazo[4,5-c]pyridin-4-amine], with “Inactive”; and `CCCCc1nc2c(N)nc(-c3ccsc3)cc2n1Cc1ccccc1` [Compound 23f, 1-Benzyl-2-butyl-6-(thiophen-3-yl)-1H-imidazo[4,5-c]pyridin-4-amine], with “Inactive”.
As to `CCCCc1nc2c(N)nc(Cc3ccccc3)cc2n1Cc1ccccc1` [Compound 23g, 1,6-Dibenzyl-2-butyl-1H-imidazo[4,5-c]pyridin-4-amine], the EC50 at human TLR7 (setting [9]) turned out to be 0.28 µM. The “TLR7-specific agonistic activity EC50” value on human TLR7 (primary screen) is “restored”.
With `CCCCc1nc2c(N)nc(Cc3ccc(C)cc3)cc2n1Cc1ccccc1` [Compound 23h, 1-Benzyl-2-butyl-6-(4-methylbenzyl)-1H-imidazo[4,5-c]pyridin-4-amine], the EC50 on human TLR7 (setting [9]) came to 1.8 µM.
`CCCCc1nc2c(N)nc(Cc3ccc(OC(F)(F)F)cc3)cc2n1Cc1ccccc1` [Compound 23i, 1-Benzyl-2-butyl-6-(4-(trifluoromethoxy)benzyl)-1H-imidazo[4,5-c]pyridin-4-amine]: the “hTLR7-agonistic Activity (EC50)” value at human TLR7 (setting [10]) is given as “Inactive”.
In the case of `CCCCc1nc2c(N)nc(CCc3ccccc3)cc2n1Cc1ccccc1` [Compound 23j, 1-Benzyl-2-butyl-6-phenethyl-1H-imidazo[4,5-c]pyridin-4-amine], on human TLR7 (setting [9]), the concentration giving a half-maximal response (EC50) worked out at 0.57 µM. The “TLR7-specific agonistic activity EC50” value at human TLR7 (primary screen) is reported as “restored”.
For `CCCCC1C(N)=Nc2ccccc21` (stereo not shown) [Compound A4], on human TLR8 (human TLR 8-specific reporter gene assays), the “hTLR8 Agonistic Activity (EC50)” value is reported as “Unstable”. Besides, the “TLR8-agonistic activity of the hydrochloride salt” value at human TLR8 (hydrochloride salt) is “inactive”. In addition, the “stability of the free-base” value in data set [7] is on record as “exceedingly unstable”.
As for `CCCCCn1c(N)nc2c(C)cccc21` [Compound A31a, 4-Methyl-1-pentyl-1H-benzo[d]imidazol-2-amine], the half-maximal effective concentration (EC50) at human TLR8 (primary screens, read-out: TLR8-agonistic activity EC50) was found to be 1.13 µM. The “induction of proinflammatory cytokines, IL-12p40 and IFN-γ” value in the data set on human PBMCs [8] is “induction”. Further, in data set [2], the “CD69 upregulation in natural killer (NK) lymphocytes” value is listed as “complete absence”.

A word on the EC50: it is the concentration that produces a half-maximal response. One may read the half-life as the time needed for the level to fall by half in the phase considered.
